Like-named read-outs stand apart in the source and are kept apart here.
Test system: recombinant NL-Rluc virus
Test: Inhibition of HIV replication (NL-RLuc luciferase reporter virus, MT-2 cells)
Type: cell-based
[1] = Human immunodeficiency virus 1, MT2, 120 h, read-out: Activity
[2] = Human immunodeficiency virus 1, MT2, 120 h, read-out: EC50 μM

Structure (SMILES) | EC50 [1] [µM] | EC50 [2] [µM] | EC50 (NL-RLuc virus in MT-2 cells, 5 days of incubation, luciferase readout, serum condition not given, read-out: Activity) [µM]
Cc1cc(CNC(=O)c2cc3nc(C)c([C@H](OC(C)(C)C)C(=O)O)c(-c4cc5c(cc4F)OCCN5)n3n2)ccc1F [Example 145, (2S)-2-(tert-Butoxy)-2-(7-(7-fluoro-3,4-dihydro-2H-benzo[b][1,4]oxazin-6-yl)-2-((4-fluoro-3-methylbenzyl)carbamoyl)-5-methylpyrazolo[1,5-a]pyrimidin-6-yl)acetic acid] | < 0.1 | – | –
Cc1nc2cc(C(=O)NCc3ccccc3)nn2c(-c2cc(F)c3c(c2C)CCCO3)c1[C@H](OC(C)(C)C)C(=O)O [Example 4, (2S)-2-(2-(Benzylcarbamoyl)-7-(8-fluoro-5-methylchroman-6-yl)-5-methylpyrazolo[1,5-a]pyrimidin-6-yl)-2-(tert-butoxy)acetic acid] | < 0.1 | – | –
Cc1nc2cc(C(=O)N3CCC(Cc4ccccc4)CC3)nn2c(-c2cc(F)c3c(c2C)CCCO3)c1[C@H](OC(C)(C)C)C(=O)O [Example 105, (2S)-2-(2-(4-benzylpiperidine-1-carbonyl)-7-(8-fluoro-5-methylchroman-6-yl)-5-methylpyrazolo[1,5-a]pyrimidin-6-yl)-2-(tert-butoxy)acetic acid] | < 0.1 | – | –
Cc1nc2cc(C(=O)NCCOc3ccccc3)nn2c(-c2cc(F)c3c(c2C)CCCO3)c1[C@H](OC(C)(C)C)C(=O)O [Example 55, (2S)-2-(tert-butoxy)-2-(7-(8-fluoro-5-methylchroman-6-yl)-5-methyl-2-((2-phenoxyethyl)carbamoyl)pyrazolo[1,5-a]pyrimidin-6-yl)acetic acid] | < 0.1 | – | –
Cc1nc2cc(C(=O)NCc3ccc(OC(F)(F)F)cc3)nn2c(-c2cc(F)c3c(c2C)CCCO3)c1[C@H](OC(C)(C)C)C(=O)O [Example 44, (2S)-2-(tert-butoxy)-2-(7-(8-fluoro-5-methylchroman-6-yl)-5-methyl-2-((4-(trifluoromethoxy)benzyl)carbamoyl)pyrazolo[1,5-a]pyrimidin-6-yl)acetic acid] | < 0.1 | – | –
Cc1nc2cc(C(=O)N(C)CCc3ccccn3)nn2c(-c2cc(F)c3c(c2C)CCCO3)c1[C@H](OC(C)(C)C)C(=O)O [Example 89, (2S)-2-(tert-butoxy)-2-(7-(8-fluoro-5-methylchroman-6-yl)-5-methyl-2-(methyl(2-(pyridin-2-yl)ethyl)carbamoyl)pyrazolo[1,5-a]pyrimidin-6-yl)acetic acid] | > 1 | – | –
Cc1nc2cc(C(=O)NCc3ccc(F)c(C4CC4)c3)nn2c(-c2cc(F)c3c(c2C)CCCO3)c1[C@H](OC(C)(C)C)C(=O)O [Example 26] | < 0.1 | – | –
CNC(=O)c1cc2nc(C)c([C@H](OC(C)(C)C)C(=O)O)c(-c3cc(F)c4c(c3C)CCCO4)n2n1 [Example 137, (2S)-2-(tert-butoxy)-2-(7-(8-fluoro-5-methylchroman-6-yl)-5-methyl-2-(methylcarbamoyl)pyrazolo[1,5-a]pyrimidin-6-yl)acetic acid] | > 1 | – | –
Cc1nc2cc(C(=O)N3CCC(N4CCCCC4)CC3)nn2c(-c2cc(F)c3c(c2C)CCCO3)c1[C@H](OC(C)(C)C)C(=O)O [Example 95, (2S)-2-(2-([1,4′-bipiperidine]-1′-carbonyl)-7-(8-fluoro-5-methylchroman-6-yl)-5-methylpyrazolo[1,5-a]pyrimidin-6-yl)-2-(tert-butoxy)acetic acid] | > 1 | – | –
Cc1nc2cc(C(=O)NCCC(C)(C)C)nn2c(-c2cc3c(cc2F)OCCN3)c1[C@H](OC(C)(C)C)C(=O)O [Example 146, (2S)-2-(tert-Butoxy)-2-(2-((3,3-dimethylbutyl)carbamoyl)-7-(7-fluoro-3,4-dihydro-2H-benzo[b][1,4]oxazin-6-yl)-5-methylpyrazolo[1,5-a]pyrimidin-6-yl)acetic acid] | < 0.1 | – | –
Cc1nc2cc(C(=O)NCc3ccc(F)cc3N3CCCC3=O)nn2c(-c2cc(F)c3c(c2C)CCCO3)c1[C@H](OC(C)(C)C)C(=O)O [Example 12, (2S)-2-(tert-butoxy)-2-(2-((4-fluoro-2-(2-oxopyrrolidin-1-yl)benzyl)carbamoyl)-7-(8-fluoro-5-methylchroman-6-yl)-5-methylpyrazolo[1,5-a]pyrimidin-6-yl)acetic acid] | > 1 | – | –
Cc1nc2cc(C(=O)NCCc3ccccc3)nn2c(-c2cc(F)c3c(c2C)CCCO3)c1[C@H](OC(C)(C)C)C(=O)O [Example 48, (2S)-2-(tert-butoxy)-2-(7-(8-fluoro-5-methylchroman-6-yl)-5-methyl-2-(phenethylcarbamoyl)pyrazolo[1,5-a]pyrimidin-6-yl)acetic acid] | < 0.1 | – | –
Cc1nc2cc(C(=O)NCCCN3CCCC3=O)nn2c(-c2cc(F)c3c(c2C)CCCO3)c1[C@H](OC(C)(C)C)C(=O)O [Example 76] | > 1 | – | –
Cc1nc2cc(C(=O)N(C)CCCn3ccnc3)nn2c(-c2cc(F)c3c(c2C)CCCO3)c1[C@H](OC(C)(C)C)C(=O)O [Example 37, (2S)-2-(2-((3-(1H-imidazol-1-yl)propyl)(methyl)carbamoyl)-7-(8-fluoro-5-methylchroman-6-yl)-5-methylpyrazolo[1,5-a]pyrimidin-6-yl)-2-(tert-butoxy)acetic acid] | > 1 | 20 | –
Cc1nc2cc(C(=O)NCCc3ccccc3Cl)nn2c(-c2cc(F)c3c(c2C)CCCO3)c1[C@H](OC(C)(C)C)C(=O)O [Example 111, (2S)-2-(tert-butoxy)-2-(2-((2-chlorophenethyl)carbamoyl)-7-(8-fluoro-5-methylchroman-6-yl)-5-methylpyrazolo[1,5-a]pyrimidin-6-yl)acetic acid] | < 0.1 | – | –
Cc1nc2cc(C(=O)NCCC(C)(C)C)nn2c(N2CCC(C)(C)CC2)c1[C@H](OC(C)(C)C)C(=O)O [Example 152, (S)-2-(tert-Butoxy)-2-(2-((3,3-dimethylbutyl)carbamoyl)-7-(4,4-dimethylpiperidin-1-yl)-5-methylpyrazolo[1,5-a]pyrimidin-6-yl)acetic acid] | < 0.1 | 0.03 | –
Cc1nc2cc(C(=O)NCCN3CCCC3)nn2c(-c2cc(F)c3c(c2C)CCCO3)c1[C@H](OC(C)(C)C)C(=O)O [Example 75, (2S)-2-(tert-butoxy)-2-(7-(8-fluoro-5-methylchroman-6-yl)-5-methyl-2-((2-(pyrrolidin-1-yl)ethyl)carbamoyl)pyrazolo[1,5-a]pyrimidin-6-yl)acetic acid] | > 1 | – | –
Cc1cc(CNC(=O)c2nn3c(-c4cc(F)c5c(c4C)CCCO5)c([C@H](OC(C)(C)C)C(=O)O)c(C)nc3c2Cl)ccc1F [Example 140, (2S)-2-(tert-Butoxy)-2-(3-chloro-2-((4-fluoro-3-methylbenzyl)carbamoyl)-7-(8-fluoro-5-methylchroman-6-yl)-5-methylpyrazolo[1,5-a]pyrimidin-6-yl)acetic acid] | < 0.1 | – | –
Cc1nc2cc(C(=O)N(C)Cc3ccc(F)cc3)nn2c(-c2cc(F)c3c(c2C)CCCO3)c1[C@H](OC(C)(C)C)C(=O)O [Example 8, (2S)-2-(tert-butoxy)-2-(7-(8-fluoro-5-methylchroman-6-yl)-2-((4-fluorobenzyl)(methyl)carbamoyl)-5-methylpyrazolo[1,5-a]pyrimidin-6-yl)acetic acid] | < 0.1 | – | –
Cc1nc2cc(C(=O)NCc3cccc(C(F)(F)F)c3)nn2c(-c2cc(F)c3c(c2C)CCCO3)c1[C@H](OC(C)(C)C)C(=O)O [Example 64] | < 0.1 | – | –
Cc1nc2cc(C(=O)N3CCN(c4cccc(Cl)c4)CC3)nn2c(-c2cc(F)c3c(c2C)CCCO3)c1[C@H](OC(C)(C)C)C(=O)O [Example 80, (2S)-2-(tert-butoxy)-2-(2-(4-(3-chlorophenyl)piperazine-1-carbonyl)-7-(8-fluoro-5-methylchroman-6-yl)-5-methylpyrazolo[1,5-a]pyrimidin-6-yl)acetic acid] | < 0.1 | – | –
Cc1nc2cc(C(=O)NCc3cccc(-n4cccc4)c3)nn2c(-c2cc(F)c3c(c2C)CCCO3)c1[C@H](OC(C)(C)C)C(=O)O [Example 99, (2S)-2-(2-((3-(1H-pyrrol-1-yl)benzyl)carbamoyl)-7-(8-fluoro-5-methylchroman-6-yl)-5-methylpyrazolo[1,5-a]pyrimidin-6-yl)-2-(tert-butoxy)acetic acid] | < 0.1 | – | –
Cc1cccc(CNC(=O)c2cc3nc(C)c([C@H](OC(C)(C)C)C(=O)O)c(-c4cc(F)c5c(c4C)CCCO5)n3n2)c1 [Example 6] | < 0.1 | – | –
Cc1nc2cc(C(=O)NC(C)c3ccccc3)nn2c(-c2cc(F)c3c(c2C)CCCO3)c1[C@H](OC(C)(C)C)C(=O)O (stereo partly drawn) [Example 39] | < 0.1 | – | –
Cc1nc2cc(C(=O)NCc3cccc(Cl)c3Cl)nn2c(-c2cc(F)c3c(c2C)CCCO3)c1[C@H](OC(C)(C)C)C(=O)O [Example 117, (2S)-2-(tert-butoxy)-2-(2-((2,3-dichlorobenzyl)carbamoyl)-7-(8-fluoro-5-methylchroman-6-yl)-5-methylpyrazolo[1,5-a]pyrimidin-6-yl)acetic acid] | < 0.1 | – | –
Cc1nc2cc(C(=O)NCC34CC5C[C@H](C3)C(O)[C@H](C5)C4)nn2c(-c2cc(F)c3c(c2C)CCCO3)c1[C@H](OC(C)(C)C)C(=O)O (stereo partly drawn) [Example 135, (2S)-2-(tert-butoxy)-2-(7-(8-fluoro-5-methylchroman-6-yl)-2-((((1R,3R,4S,5R,7S)-4-hydroxyadamantan-1-yl)methyl)carbamoyl)-5-methylpyrazolo[1,5-a]pyrimidin-6-yl)acetic acid] | – | – | 0.1 to 1
Cc1ccc(CNC(=O)c2cc3nc(C)c([C@H](OC(C)(C)C)C(=O)O)c(-c4cc(F)c5c(c4C)CCCO5)n3n2)cc1F [Example 60, (2S)-2-(tert-butoxy)-2-(2-((3-fluoro-4-methylbenzyl)carbamoyl)-7-(8-fluoro-5-methylchroman-6-yl)-5-methylpyrazolo[1,5-a]pyrimidin-6-yl)acetic acid] | < 0.1 | – | –
Cc1ccccc1CNC(=O)c1cc2nc(C)c([C@H](OC(C)(C)C)C(=O)O)c(-c3cc(F)c4c(c3C)CCCO4)n2n1 [Example 7, (2S)-2-(tert-butoxy)-2-(7-(8-fluoro-5-methylchroman-6-yl)-5-methyl-2-((2-methylbenzyl)carbamoyl)pyrazolo[1,5-a]pyrimidin-6-yl)acetic acid] | < 0.1 | – | –

Reference: US8791108B2, “Inhibitors of human immunodeficiency virus replication” (priority 2011, dated 2014)
